This note sets out measurements from patent publication US9790235B2, “MK2 inhibitors and uses thereof” (Celgene CAR LLC, priority 2014, dated 2017).

Like-named read-outs stand apart in the source and are kept apart here. Where only a bound is given, the exact number is not on record here.

What is called EC50 is the concentration needed to bring the measured effect to its halfway point. By IC50 is commonly meant the midpoint of a concentration-inhibition curve.

Experiment [1] addresses T1, MK2 (Homo sapiens (Human), UniProt P49137). The experiment in a line: MK2 cellular assay, total and phospho-Hsp27 (Serine 78) by MSD ELISA (Thp1). It counts as cell-based. The method, boiled down: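 PMA-differentiated (10 ng/mL, 72 h) Thp-1 cells were pretreated with compound (top 3000 nM) for 1 h at 37 °C, then stimulated with 50 ng/mL LPS for 45 min. Lysate phospho-Hsp27 (Ser78) and total Hsp27 were read by MSD electrochemiluminescence ELISA, and the value is expressed as percent phospho/total signal per well.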
On the technique in general: In an ELISA, binding on a coated surface is turned into a signal by an enzyme label.

In experiment [2] the target is T1, MK2.
Procedure: Aliquots of the resulting mixture (6 μL each) were diluted with 0.2% trifluoroacetic acid (TFA, 10 μL) prior to micro C4 ZipTipping directly onto the MALDI target using sinapinic acid as the desorption matrix (10 mg/ml in 0.1% TFA:acetonitrile 50:50, v/v). The centroid mass of the target protein in the control sample was compared with the centroid mass of the target protein incubated with compound. A shift in the centroid mass of the treated protein compared to the untreated protein was divided by the molecular weight of the compound. This number corresponds to the percentage of modified protein (a measure of the proportion of total target protein covalently bound to the test compound) after one hour incubation.
3 μL of magnetic Ni-NTA beads were added to the 6 μL aliquots of sample, washed, eluted with 0.2% trifluoroacetic acid (TFA, 2 μL), and spotted directly onto the MALDI target using sinapinic acid as the desorption matrix (10 mg/ml in 0.1% TFA:acetonitrile 50:50, v/v). The centroid mass of the target protein in the control sample was compared with the centroid mass of the target protein incubated with compound. A shift in the centroid mass of the treated protein compared to the untreated protein was divided by the molecular weight of the compound. This number corresponds to the percentage of modified protein (a measure of the proportion of total target protein covalently bound to the test compound) after one hour incubation.
In experiment [3] the target is p38α activated, mitogen-activated protein kinase-activated protein kinase 2 (MAPKAP-K2 or MK2) enzyme (Homo sapiens (Human), UniProt P49137). The experiment in a line: MK2 Omnia continuous-read kinase assay for compound potency. It is filed as biochemical. The method, boiled down:
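Activated MK2 (0.4 nM) was run with S/T3-Sox peptide and ATP, each at 10 μM (ATP at apparent KM), and Sox fluorescence was followed every 71 s for 2 h at room temperature. IC50 came from linear initial rates after no-enzyme subtraction, and apparent kinact/KI from kobs of single-exponential fits.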

[4] abbreviates: Thp-1 cells, 1 hour compound, 50 ng/mL LPS 45 minutes, p-HSP27 (Ser78)/total HSP27, read-out: pHSP27 signaling EC50.
[5] abbreviates: percentage of modified protein after 60 minutes at room temperature, 10-fold excess of compound, MALDI (I-1 to I-50), magnetic bead MALDI (I-51 to I-129).
Setting [6] is: [MK-2]=0.4 nM, [ATP]=10 μM, [ST3-Sox]=10 μM, read-out: MK2 IC50.
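For Mass Modification in this document: covalent binding read from centroid mass shift of compound-treated versus untreated intact MK2, shift divided by compound molecular weight, giving fraction of total protein bound.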

T1 sequence (P49137 whole entry): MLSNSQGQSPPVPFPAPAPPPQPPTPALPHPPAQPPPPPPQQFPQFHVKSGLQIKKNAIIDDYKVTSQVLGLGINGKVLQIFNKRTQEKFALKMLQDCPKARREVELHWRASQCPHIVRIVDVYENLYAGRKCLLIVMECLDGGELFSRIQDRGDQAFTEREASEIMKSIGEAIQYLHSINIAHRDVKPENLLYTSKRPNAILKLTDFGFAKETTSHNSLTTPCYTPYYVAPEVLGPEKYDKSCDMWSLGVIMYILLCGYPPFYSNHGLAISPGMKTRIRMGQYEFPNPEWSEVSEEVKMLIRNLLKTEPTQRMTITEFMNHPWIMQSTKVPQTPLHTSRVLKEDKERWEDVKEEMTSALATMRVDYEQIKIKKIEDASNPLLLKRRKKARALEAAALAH
p38α activated, mitogen-activated protein kinase-activated protein kinase 2 (MAPKAP-K2 or MK2) enzyme, sequence (P49137 whole entry): as above

Regarding `C[C@@H]1CNc2c(sc3ccc4nc(Oc5nc(Cl)nc(N6CCCCC6)n5)ccc4c23)C(=O)N1` [I-64, (R)-3-((4-chloro-6-(piperidin-1-yl)-1,3,5-triazin-2-yl)oxy)-10-methyl-9,10,11,12-tetrahydro-8H-[1,4]diazepino[5′,6′:4,5]thieno[3,2-f]quinolin-8-one], at MK2 [1] (setting [4]), the concentration for a half-maximal effect (EC50) was more than 1000 nM. Further, at MK2 [2] (setting [5]), the “Mass Modification” value is “E (mass modification of ≧70%)”. The concentration for half-maximal inhibition (IC50) in experiment [3] (setting [6]) is less than 100 nM.
For `Cc1nc(F)cc(Oc2ccc3c(ccc4sc5c(c43)NC[C@@H](C)NC5=O)n2)n1` [I-65, (R)-3-((6-fluoro-2-methylpyrimidin-4-yl)oxy)-10-methyl-9,10,11,12-tetrahydro-8H-[1,4]diazepino[5′,6′:4,5]thieno[3,2-f]quinolin-8-one] the same measures were 101 to 500 nM, “E (mass modification of ≧70%)” and less than 100 nM.
For the molecule `C[C@@H]1CNc2c(sc3ccc4nc(Nc5cc(Cl)nc(OCCN6CCN(C)CC6)n5)ccc4c23)C(=O)N1` [I-66, (R)-3-((6-chloro-2-(2-(4-methylpiperazin-1-yl)ethoxy)pyrimidin-4-yl)amino)-10-methyl-9,10,11,12-tetrahydro-8H-[1,4]diazepino[5′,6′:4,5]thieno[3,2-f]quinolin-8-one], the EC50 at MK2 [1] (setting [4]) was 101 to 500 nM. On MK2 [2] (setting [5]), the “Mass Modification” value was “F (mass modification of 31-69%)”. Moreover, the half-inhibitory concentration (IC50) in experiment [3] (setting [6]) is less than 100 nM.
For `COCCOc1nc(Cl)cc(Nc2ccc3c(ccc4sc5c(c43)NC[C@@H](C)NC5=O)n2)n1` [I-67, (R)-3-((6-chloro-2-(2-methoxyethoxy)pyrimidin-4-yl)amino)-10-methyl-9,10,11,12-tetrahydro-8H-[1,4]diazepino[5′,6′:4,5]thieno[3,2-f]quinolin-8-one] the same measures were 101 to 500 nM, “F (mass modification of 31-69%)” and less than 100 nM.
For `C[C@@H]1CNc2c(sc3ccc4nc(Oc5cc(Cl)nc(CO)n5)ccc4c23)C(=O)N1` [I-68, (R)-3-((6-chloro-2-(hydroxymethyl)pyrimidin-4-yl)oxy)-10-methyl-9,10,12-tetrahydro-8H-[1,4]diazepino[5′,6′:4,5]thieno[3,2-f]quinolin-8-one] the same measures were less than 100 nM, “E (mass modification of ≧70%)” and less than 100 nM.
On to `COC(=O)c1nc(Cl)cc(Nc2ccc3c(ccc4sc5c(c43)NC[C@@H](C)NC5=O)n2)n1` [I-70, (R)-methyl 4-chloro-6-((10-methyl-8-oxo-9,10,11,12-tetrahydro-8H-[1,4]diazepino[5′,6′:4,5]thieno[3,2-f]quinolin-3-yl)amino)pyrimidine-2-carboxylate], for which the EC50 at MK2 [1] (setting [4]) was less than 100 nM. Also, the “Mass Modification” value at MK2 [2] is on record as “E (key: E: mass modification of ≧70%; F: mass modification of 31-69%; G: mass modification ≦30%)”. Further, the half-maximal inhibitory concentration (IC50) in experiment [3] (read-out: MK2 IC50) was less than 100 nM.
`COC(=O)c1nc(Cl)cc(Oc2ccc3c(ccc4sc5c(c43)NC[C@@H](C)NC5=O)n2)n1` [I-71, (R)-methyl 4-chloro-6-((10-methyl-8-oxo-9,10,11,12-tetrahydro-8H-[1,4]diazepino[5′,6′:4,5]thieno[3,2-f]quinolin-3-yl)oxy)pyrimidine-2-carboxylate]: the EC50 at MK2 [1] (setting [4]) was less than 100 nM. In addition, the “Mass Modification” value at MK2 [2] (setting [5]) was “E (mass modification of ≧70%)”. Also, the IC50 in experiment [3] (setting [6]) is less than 100 nM.
As for `C[C@@H]1CNc2c(sc3ccc4nc(Sc5ccnc(Cl)n5)ccc4c23)C(=O)N1` [I-72, (R)-3-((2-chloropyrimidin-4-yl)thio)-10-methy-9,10,11,12-tetrahydro-8H-[1,4]diazepino[5′,6′:4,5]thieno[3,2-f]quinolin-8-one], the EC50 on MK2 [1] (setting [4]) was more than 1000 nM. The “Mass Modification” value on MK2 [2] (setting [5]) is “G (mass modification ≦30%)”. The IC50 in experiment [3] (setting [6]) was less than 100 nM.
Taken in the same sequence, the figures for `C[C@@H]1CNc2c(sc3ccc4nc(Nc5cc(F)nc(CN6CCN(C)CC6)n5)ccc4c23)C(=O)N1` [I-73, (R)-3-((6-fluoro-2-((4-methylpiperazin-1-yl)methyl)pyrimidin-4-yl)amino)-10-methyl-9,10,11,12-tetrahydro-8H-[1,4]diazepino[5′,6′:4,5]thieno[3,2-f]quinolin-8-one] were more than 1000 nM, “G (mass modification ≦30%)” and less than 100 nM.
For `C[C@@H]1CNc2c(sc3ccc4nc(Nc5cc(F)nc(CN6CCCCC6)n5)ccc4c23)C(=O)N1` [I-74, (R)-3-((6-fluoro-2-(piperidin-1-ylmethyl)pyrimidin-4-yl)amino)-10-methyl-9,10,11,12-tetrahydro-8H-[1,4]diazepino[5′,6′:4,5]thieno[3,2-f]quinolin-8-one] the same measures were less than 100 nM, “E (mass modification of ≧70%)” and less than 100 nM.
For `C[C@@H]1CNc2c(sc3ccc4nc(Oc5nc(Cl)nc(N(C)C)n5)ccc4c23)C(=O)N1` [I-75, (R)-3-((4-chloro-6-(dimethylamino)-1,3,5-triazin-2-yl)oxy)-10-methyl-9,10,11,12-tetrahydro-8H-[1,4]diazepino[5′,6′:4,5]thieno[3,2-f]quinolin-8-one] the same measures were less than 100 nM, “E (mass modification of ≧70%)” and less than 100 nM.
For the molecule `COc1nc(Cl)nc(Oc2ccc3c(ccc4sc5c(c43)NC[C@@H](C)NC5=O)n2)n1` [I-76, (R)-3-((4-chloro-6-methoxy-1,3,5-triazin-2-yl)oxy)-10-methyl-9,10,11,12-tetrahydro-8H-[1,4]diazepino[5′,6′:4,5]thieno[3,2-f]quinolin-8-one], at MK2 [1] (setting [4]), the 50% effective concentration (EC50) was more than 1000 nM. The “Mass Modification” value at MK2 [2] (setting [5]) is reported as “E (mass modification of ≧70%)”. Further, the IC50 in experiment [3] (setting [6]) is less than 100 nM.
For `C[C@@H]1CNc2c(sc3ccc4nc(Oc5cnnc(Cl)c5)ccc4c23)C(=O)N1` [I-79, (R)-3-((6-chloropyridazin-4-yl)oxy)-10-methyl-9,10,11,12-tetrahydro-8H-[1,4]diazepino[5′,6′:4,5]thieno[3,2-f]quinolin-8-one] the same measures were 101 to 500 nM, “E (mass modification of ≧70%)” and less than 100 nM.
For `C[C@@H]1CNc2c(sc3ccc4nc(Oc5nc(Cl)ncc5CN5CC6CC6C5)ccc4c23)C(=O)N1` (stereo partly drawn) [I-83, ((1OR)-3-((5-(3-azabicyclo[3.1.0]hexan-3-yl)methyl)-2-chloropyrimidin-4-yl)oxy)-10-methyl-9,10,11,12-tetrahydro-8H-[1,4]diazepino[5′,6′:4,5]thieno[3,2-f]quinolin-8-one] the same measures were less than 100 nM, “E (mass modification of ≧70%)” and 101 to 500 nM.
`C[C@@H]1CNc2c(sc3ccc4nc(Oc5nc(Cl)ncc5CN5CC6CC(C6)C5)ccc4c23)C(=O)N1` [I-85, (R)-3-((5-((3-azabicyclo[3.1.1]heptan-3-yl)methyl)-2-chloropyrimidin-4-yl)oxy)-10-methyl-9,10,11,12-tetrahydro-8H-[1,4]diazepino[5′,6′:4,5]thieno[3,2-f]quinolin-8-one] registered an EC50 at MK2 [1] of less than 100 nM. Moreover, the “Mass Modification” value on MK2 [2] (setting [5]) is listed as “E (mass modification of ≧70%)”. In addition, in experiment [3], the IC50 was in the range of 101 to 500 nM.
In the case of `C[C@@H]1CNc2c(sc3ccc4nc(Oc5nc(Cl)nc6c5COC6)ccc4c23)C(=O)N1` [I-86, (R)-3-((2-chloro-5,7-dihydrofuro[3,4-d]pyrimidin-4-yl)oxy)-10-methyl-9,10,11,12-tetrahydro-8H-[1,4]diazepino[5′,6′:4,5]thieno[3,2-f]quinolin-8-one], at MK2 [1] (setting [4]), the EC50 is less than 100 nM. The “Mass Modification” value at MK2 [2] (setting [5]) is reported as “E (mass modification of ≧70%)”. Moreover, the half-inhibitory concentration (IC50) in experiment [3] (setting [6]) was less than 100 nM.
In the case of `COCCN(C)Cc1cnc(Cl)nc1Oc1ccc2c(ccc3sc4c(c32)NC[C@@H](C)NC4=O)n1` [I-90, (R)-3-((2-chloro-5-(((2-methoxyethyl)(methyl)amino)methyl)pyrimidin-4-yl)oxy)-10-methyl-9,10,11,12-tetrahydro-8H-[1,4]diazepino[5′,6′:4,5]thieno[3,2-f]quinolin-8-one], the half-maximal effective concentration (EC50) on MK2 [1] (setting [4]) was less than 100 nM. Moreover, on MK2 [2] (setting [5]), the “Mass Modification” value is “E (mass modification of ≧70%)”. Further, the IC50 in experiment [3] (setting [6]) was in the range of 101 to 500 nM.
For `CCN1CCN(Cc2cnc(Cl)nc2Oc2ccc3c(ccc4sc5c(c43)NC[C@@H](C)NC5=O)n2)CC1` [I-94, (R)-3-((2-chloro-5-((4-ethylpiperazin-1-yl)methyl)pyrimidin-4-yl)oxy)-10-methyl-9,10,11,12-tetrahydro-8H-[1,4]diazepino[5′,6′:4,5]thieno[3,2-f]quinolin-8-one] the same measures were more than 1000 nM, “E (mass modification of ≧70%)” and 101 to 500 nM.
For `C[C@@H]1CNc2c(sc3ccc4nc(Oc5nc(Cl)ncc5CN5CCCC(C)(C)C5)ccc4c23)C(=O)N1` [I-95, (R)-3-((2-chloro-5-((3,3-dimethylpiperidin-1-yl)methyl)pyrimidin-4-yl)oxy)-10-methyl-9,10,11,12-tetrahydro-8H-[1,4]diazepino[5′,6′:4,5]thieno[3,2-f]quinolin-8-one] the same measures were less than 100 nM, “E (mass modification of ≧70%)” and 101 to 500 nM.
